Experimental data from paper PMC6350621, “Small-molecules that covalently react with a human prolyl hydroxylase – towards activity modulation and substrate capture” (Chemical Communications (Cambridge, England), 2018).

Key:
PHD2 [1] = test system: PHD2; set-up: method as in PMID 16782814; conditions: reversible iron-binding inhibitor; cited from earlier work
PHD2_181–426 = biological target: T1, PHD2_181–426 (Homo sapiens, UniProt Q9GZT9); assay: Non-denaturing ESI-MS of covalent adduct formation with PHD2; assay type: binding; conditions: for covalent modification of PHD2: analogues of 1/2, compared with 1/2; for condensation (covalent adduct) with PHD2 after 5 min: equimolar PHD2 (20 μM), Fe(II) and compound; for covalent reaction with PHD2 after 20 min: equimolar PHD2 and Fe(II), cone voltage 200 V
T1 construct: PHD2_181–426 (hereafter PHD2); His6 (N, cleaved yes); made in house; host or cells: bacterial culture (2x TY, kanamycin, IPTG)
T1 sequence (Q9GZT9 181-426): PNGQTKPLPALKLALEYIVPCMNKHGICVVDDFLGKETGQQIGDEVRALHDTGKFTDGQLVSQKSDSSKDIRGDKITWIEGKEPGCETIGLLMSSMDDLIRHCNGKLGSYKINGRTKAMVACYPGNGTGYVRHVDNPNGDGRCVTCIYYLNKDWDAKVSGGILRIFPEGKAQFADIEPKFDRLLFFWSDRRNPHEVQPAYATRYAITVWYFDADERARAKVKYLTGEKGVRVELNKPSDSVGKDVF
Description: The interaction of the ligands with PHD2_181–426 (hereafter PHD2) was examined by non-denaturing ESI-MS, using cone voltage variation to distinguish covalent and non-covalent complexes (non-covalent interactions are typically preserved at cone voltages of 50–80 V, and dissociated at 200 V).[16]–[18] Aldehydes 1 and 2 were incubated with equimolar PHD2 and Fe(II) (37 °C; 5 or 20 min). […] Without Fe(II), neither covalent nor non-covalent adducts were observed, implying covalent conjugation involves active site Fe(II) binding, with subsequent condensation.
Fig. S2 A) Schematic representation of the assigned species formed on addition of 1 or 2 to PHD2. The results support initial non-covalent binding of the inhibitors to PHD2.Fe(II) to form B. Subsequently, condensation of a lysine residue with the aldehyde forms the covalent adduct C. (B) and (C): Non-denaturing ESI-MS data support the covalent crosslinking of 1/2 with PHD2. Conditions: PHD2 (20 µM) was incubated (37 °C, 5 or 20 min) with equimolar FeSO4 and 1 or 2, and the resulting mixtures were analysed by ESI-MS (cone voltage: 50 V or 200 V). Labelled peaks correspond to: A: Unmodified PHD2.Fe. B: Non-covalent adduct PHD2.Fe.2. C: Covalent adduct PHD2.Fe.1/2.
Fig. S6 The α,β-unsaturated amide 3 can covalently modify PHD2. (A) Schematic representation of the adducts formed upon incubation of 3 with PHD2.
PHD2. PHD2 (20 µM) was incubated (37 °C, 5 min, 1 h or 2 h) with equimolar FeSO4 and 3 or 4 before analysis by ESI-MS (cone voltage: 50 V or 200 V). Labelled peaks correspond to the following assigned complexes: A: unmodified PHD2.Fe; B: the non-covalent PHD2.Fe.3 adduct; C: the covalent PHD2.Fe.3 adduct.
2. Experimental procedures
1.1.1 Non-denaturing mass spectrometry1
Apo PHD2 was desalted using a Bio-Spin 6 Column (Bio-Rad, Hemel Hempstead, UK) into 15 mM ammonium acetate (pH 7.5). The stock solution was diluted with the same buffer to a final concentration of 100 μM. FeSO4·7H2O was dissolved in 20 mM HCl at a concentration of 100 mM. This solution was then diluted with MilliQ purified water to give a final working concentration of 100 μM. The protein was mixed with the Fe(II) solution and the inhibitor solution to give final concentrations of 20 μM PHD2, 20 μM Fe(II), and 20 μM inhibitor. The resultant solution was incubated for the appropriate time (specified in the text) at 37 […]
(5 min or 20 min) at 37 °C. After incubation, the samples were immediately analysed by ESI-MS. Data were acquired using a Q-TOF mass spectrometer (Q-TOF micro, Micromass, Altrincham, UK) interfaced with a Nanomate (Advion Biosciences, Ithaca, NY, USA) with a chip voltage of 1.70 kV and a delivery pressure 0.5 psi (1 psi = […]). The sample cone voltage was typically 200 or 50 V with a source temperature of 40 °C and with an acquisition/scan time of 10s/1s. Sample acquisition was performed in positive ion mode in the range of 2000-4000 m/z. The pressure at the interface between the atmospheric source and the high vacuum region was fixed at 6.30 mbar. External instrument calibration was achieved using sodium iodide.

PHD2 [2] = biological target: T2, PHD2 (Homo sapiens, UniProt Q9GZT9); assay: Peptide turnover assay (CODD hydroxylation) with MALDI-MS detection; assay type: biochemical; conditions: >95% crosslinked PHD2·Fe·compound, 30 µM compound kept in the assay
T2 construct: PHD2_181–426 (hereafter PHD2); His6 (N, cleaved yes); made in house; host or cells: bacterial culture (2x TY, kanamycin, IPTG)
T2 sequence (Q9GZT9 181-426): as above

PHD2 (residues 181-426) [3] = biological target: T3, PHD2 (residues 181-426) (Homo sapiens, UniProt Q9GZT9); assay: biochemical
T3 sequence (Q9GZT9 181-426): as above

PHD2 (residues 181-426) [4] = biological target: T3, PHD2 (residues 181-426); assay: AlphaScreen antibody based PHD2 inhibition assay; conditions: preincubated versus not
HIF-1α in HeLa cells = assay: HIF-1α levels in HeLa cells by anti-HIF-1α immunoblotting; conditions: 6 h
KDM4A = biological target: T4, KDM4A (Homo sapiens, UniProt O75164); assay: AlphaScreen assay KDM4A
T4 sequence (O75164 1-1064): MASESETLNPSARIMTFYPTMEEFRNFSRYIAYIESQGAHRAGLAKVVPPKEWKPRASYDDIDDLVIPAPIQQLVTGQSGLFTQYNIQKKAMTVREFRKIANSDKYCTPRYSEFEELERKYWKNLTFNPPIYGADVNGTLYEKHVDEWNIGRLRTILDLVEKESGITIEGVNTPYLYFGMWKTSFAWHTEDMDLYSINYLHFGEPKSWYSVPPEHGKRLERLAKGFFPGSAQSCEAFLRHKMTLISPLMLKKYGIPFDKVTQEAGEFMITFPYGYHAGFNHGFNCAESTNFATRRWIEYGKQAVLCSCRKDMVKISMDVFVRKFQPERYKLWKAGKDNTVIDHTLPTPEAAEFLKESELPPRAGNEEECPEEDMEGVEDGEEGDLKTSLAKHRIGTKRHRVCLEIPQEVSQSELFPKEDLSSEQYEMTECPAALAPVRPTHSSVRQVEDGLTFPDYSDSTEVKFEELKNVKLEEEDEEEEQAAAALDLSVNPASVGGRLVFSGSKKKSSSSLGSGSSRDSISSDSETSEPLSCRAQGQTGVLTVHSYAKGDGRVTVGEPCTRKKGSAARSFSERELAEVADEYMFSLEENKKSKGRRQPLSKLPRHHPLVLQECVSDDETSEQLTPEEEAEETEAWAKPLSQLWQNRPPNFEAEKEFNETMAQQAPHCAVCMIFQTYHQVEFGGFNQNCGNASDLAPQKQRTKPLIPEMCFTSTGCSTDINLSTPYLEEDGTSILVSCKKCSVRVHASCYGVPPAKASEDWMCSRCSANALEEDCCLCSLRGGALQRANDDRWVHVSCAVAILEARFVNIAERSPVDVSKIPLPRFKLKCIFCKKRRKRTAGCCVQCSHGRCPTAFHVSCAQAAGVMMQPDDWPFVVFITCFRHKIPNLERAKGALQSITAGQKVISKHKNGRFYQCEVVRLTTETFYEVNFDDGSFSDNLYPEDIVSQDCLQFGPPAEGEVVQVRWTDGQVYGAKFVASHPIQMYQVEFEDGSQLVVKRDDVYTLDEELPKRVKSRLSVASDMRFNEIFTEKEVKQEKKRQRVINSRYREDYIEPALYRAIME

KDM4D = biological target: T5, KDM4D (Homo sapiens, UniProt Q6B0I6); assay: AlphaScreen assay KDM4D
T5 sequence (Q6B0I6 1-523): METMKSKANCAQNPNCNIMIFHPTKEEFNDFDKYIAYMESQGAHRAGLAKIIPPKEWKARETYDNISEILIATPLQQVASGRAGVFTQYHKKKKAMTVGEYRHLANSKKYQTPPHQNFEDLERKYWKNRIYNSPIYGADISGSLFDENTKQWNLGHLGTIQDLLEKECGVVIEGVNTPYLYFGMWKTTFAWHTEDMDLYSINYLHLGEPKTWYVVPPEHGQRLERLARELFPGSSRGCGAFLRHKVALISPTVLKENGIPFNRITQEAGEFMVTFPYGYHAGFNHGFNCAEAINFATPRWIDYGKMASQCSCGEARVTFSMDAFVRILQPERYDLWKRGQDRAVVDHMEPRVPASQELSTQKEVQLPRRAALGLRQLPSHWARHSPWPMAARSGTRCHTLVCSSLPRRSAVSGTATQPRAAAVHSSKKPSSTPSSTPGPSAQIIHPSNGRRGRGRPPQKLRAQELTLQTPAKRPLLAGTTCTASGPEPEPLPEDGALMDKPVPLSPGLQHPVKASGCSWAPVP

KDM5B = KDM5B (Homo sapiens, UniProt Q9UGL1); assay: AlphaScreen assay KDM5B
KDM5B, sequence (Q9UGL1 whole entry, species assumed): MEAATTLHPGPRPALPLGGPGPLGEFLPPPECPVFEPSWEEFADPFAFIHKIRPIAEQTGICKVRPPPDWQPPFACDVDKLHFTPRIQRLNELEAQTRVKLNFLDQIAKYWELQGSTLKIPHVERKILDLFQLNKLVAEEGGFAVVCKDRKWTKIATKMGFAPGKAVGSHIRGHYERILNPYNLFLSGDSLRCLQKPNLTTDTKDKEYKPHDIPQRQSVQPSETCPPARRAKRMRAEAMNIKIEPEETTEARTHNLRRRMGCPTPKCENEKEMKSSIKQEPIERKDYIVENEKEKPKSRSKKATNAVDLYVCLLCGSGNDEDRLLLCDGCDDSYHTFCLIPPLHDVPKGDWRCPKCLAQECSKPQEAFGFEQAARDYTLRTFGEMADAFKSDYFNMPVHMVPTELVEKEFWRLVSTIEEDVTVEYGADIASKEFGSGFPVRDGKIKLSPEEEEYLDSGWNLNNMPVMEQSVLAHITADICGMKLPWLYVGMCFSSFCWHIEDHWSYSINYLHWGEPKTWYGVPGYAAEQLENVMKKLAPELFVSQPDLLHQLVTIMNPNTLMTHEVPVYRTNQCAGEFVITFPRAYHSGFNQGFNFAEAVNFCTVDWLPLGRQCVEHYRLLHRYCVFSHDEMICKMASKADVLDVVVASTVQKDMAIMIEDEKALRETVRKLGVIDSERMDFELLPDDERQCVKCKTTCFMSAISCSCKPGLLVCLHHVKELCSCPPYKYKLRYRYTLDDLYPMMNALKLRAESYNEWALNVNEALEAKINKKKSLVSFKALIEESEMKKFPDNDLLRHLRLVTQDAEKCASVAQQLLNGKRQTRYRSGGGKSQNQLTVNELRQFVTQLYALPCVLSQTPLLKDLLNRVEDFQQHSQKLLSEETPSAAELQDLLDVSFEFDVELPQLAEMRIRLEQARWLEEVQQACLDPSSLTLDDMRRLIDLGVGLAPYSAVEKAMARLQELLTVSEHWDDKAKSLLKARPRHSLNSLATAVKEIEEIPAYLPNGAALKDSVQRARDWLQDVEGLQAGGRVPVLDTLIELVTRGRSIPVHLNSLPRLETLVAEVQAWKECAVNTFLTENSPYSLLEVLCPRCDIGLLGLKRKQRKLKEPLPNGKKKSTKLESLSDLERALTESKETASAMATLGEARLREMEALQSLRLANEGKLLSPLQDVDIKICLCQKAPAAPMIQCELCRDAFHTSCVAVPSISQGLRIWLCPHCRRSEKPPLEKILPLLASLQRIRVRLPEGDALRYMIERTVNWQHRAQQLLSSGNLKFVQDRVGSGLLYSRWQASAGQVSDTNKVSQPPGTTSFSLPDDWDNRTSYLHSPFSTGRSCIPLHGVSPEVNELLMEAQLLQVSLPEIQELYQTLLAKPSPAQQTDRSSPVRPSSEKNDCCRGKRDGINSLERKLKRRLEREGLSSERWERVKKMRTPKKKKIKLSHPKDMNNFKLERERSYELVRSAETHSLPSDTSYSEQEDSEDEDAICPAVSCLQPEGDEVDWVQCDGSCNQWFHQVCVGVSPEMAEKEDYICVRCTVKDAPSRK

KDM6B = KDM6B (Homo sapiens, UniProt O15054); assay: AlphaScreen assay KDM6B
KDM6B, sequence (O15054 whole entry, species assumed): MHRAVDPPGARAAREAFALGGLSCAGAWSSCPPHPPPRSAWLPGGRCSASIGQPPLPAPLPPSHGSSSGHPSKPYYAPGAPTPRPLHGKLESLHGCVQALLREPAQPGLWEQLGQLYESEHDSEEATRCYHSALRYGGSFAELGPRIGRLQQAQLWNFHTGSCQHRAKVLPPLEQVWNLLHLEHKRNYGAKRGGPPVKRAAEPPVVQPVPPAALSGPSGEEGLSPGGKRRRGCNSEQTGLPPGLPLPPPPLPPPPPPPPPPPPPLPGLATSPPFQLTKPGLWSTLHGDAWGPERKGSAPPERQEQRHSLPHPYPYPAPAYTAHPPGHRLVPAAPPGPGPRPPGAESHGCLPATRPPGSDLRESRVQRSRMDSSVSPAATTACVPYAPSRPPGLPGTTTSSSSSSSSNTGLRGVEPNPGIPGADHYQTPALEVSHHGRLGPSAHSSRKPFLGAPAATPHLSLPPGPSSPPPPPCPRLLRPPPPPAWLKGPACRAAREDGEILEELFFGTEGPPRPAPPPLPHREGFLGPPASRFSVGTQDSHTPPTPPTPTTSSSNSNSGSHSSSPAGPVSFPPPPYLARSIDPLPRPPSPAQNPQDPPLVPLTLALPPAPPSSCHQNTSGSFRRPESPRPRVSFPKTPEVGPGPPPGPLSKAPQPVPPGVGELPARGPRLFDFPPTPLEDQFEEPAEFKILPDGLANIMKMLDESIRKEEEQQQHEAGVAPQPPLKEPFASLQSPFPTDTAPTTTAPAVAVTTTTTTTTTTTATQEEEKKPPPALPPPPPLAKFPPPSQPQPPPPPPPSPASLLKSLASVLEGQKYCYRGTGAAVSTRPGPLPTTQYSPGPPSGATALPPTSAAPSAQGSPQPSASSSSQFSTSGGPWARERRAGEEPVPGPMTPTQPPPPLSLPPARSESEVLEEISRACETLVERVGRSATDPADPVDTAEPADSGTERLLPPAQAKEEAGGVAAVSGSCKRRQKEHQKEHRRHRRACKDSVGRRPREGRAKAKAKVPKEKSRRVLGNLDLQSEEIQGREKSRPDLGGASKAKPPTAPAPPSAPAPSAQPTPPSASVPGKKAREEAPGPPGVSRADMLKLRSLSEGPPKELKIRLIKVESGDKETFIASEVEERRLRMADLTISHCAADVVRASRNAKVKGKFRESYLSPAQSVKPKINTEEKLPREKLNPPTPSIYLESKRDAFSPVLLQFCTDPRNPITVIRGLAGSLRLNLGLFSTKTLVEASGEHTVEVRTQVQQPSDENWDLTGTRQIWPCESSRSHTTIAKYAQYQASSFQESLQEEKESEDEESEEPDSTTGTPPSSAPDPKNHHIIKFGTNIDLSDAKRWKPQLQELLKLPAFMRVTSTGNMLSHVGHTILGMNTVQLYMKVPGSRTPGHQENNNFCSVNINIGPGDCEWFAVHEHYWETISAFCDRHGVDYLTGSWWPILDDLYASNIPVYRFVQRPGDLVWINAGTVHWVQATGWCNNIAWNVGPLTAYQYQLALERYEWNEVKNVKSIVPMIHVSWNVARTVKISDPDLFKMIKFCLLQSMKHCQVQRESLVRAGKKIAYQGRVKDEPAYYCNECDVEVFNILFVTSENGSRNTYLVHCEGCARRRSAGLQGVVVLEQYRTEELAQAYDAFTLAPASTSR

## O=Cc1ccc(O)c(C(=O)NCC(=O)O)c1 [S1]
PHD2_181–426
  covalent modification of PHD2: No covalent modification

## O=Cc1cccc(C(=O)NCC(=O)O)n1 [S4]
PHD2_181–426
  covalent modification of PHD2: Some apparent covalent modification

## O=Cc1cccc(C(=O)NCC(=O)O)c1O [compound 1]
PHD2_181–426; 37 °C
  condensation (covalent adduct) with PHD2 after 5 min: complete condensation
  covalent reaction with PHD2 after 20 min: react with PHD2
PHD2 [2]
  catalytic activity (CODD hydroxylation) of PHD2 covalently modified by the compound: apparently active
PHD2 (residues 181-426) [3]
  IC50: > 100 µM
PHD2 (residues 181-426) [4]
  drop of IC50 on preincubation: ~2 fold
HIF-1α in HeLa cells; 50 or 250 µM
  HIF-1α upregulation in HeLa cells: no upregulation of HIF-1α

## O=Cc1c(O)c(C(=O)NCC(=O)O)cc2ccccc12 [compound 2]
PHD2_181–426; 37 °C
  condensation (covalent adduct) with PHD2 after 5 min: ~30%
  covalent reaction with PHD2 after 20 min: react with PHD2
PHD2 [2]
  catalytic activity (CODD hydroxylation) of PHD2 covalently modified by the compound: apparently active
PHD2 (residues 181-426) [3]
  IC50: > 100 µM
PHD2 (residues 181-426) [4]
  drop of IC50 on preincubation: ~2 fold
HIF-1α in HeLa cells; 50 or 250 µM
  HIF-1α upregulation in HeLa cells: no upregulation of HIF-1α

## C=CCc1cccc(C(=O)NCC(=O)O)c1O [compound 4]
PHD2_181–426; equimolar PHD2/Fe(II), 37 °C, up to 2 h
  covalent adduct with PHD2 after up to 2 h: No covalent adduct

## CCOC(=O)CNC(=O)c1cccc(C=O)c1O [compound 5]
HIF-1α in HeLa cells; 0-500 μM
  HIF-1α upregulation in HeLa cells: caused upregulation of HIF-1α
HIF-1α in HeLa cells; >250 μM
  HIF-1α upregulation in HeLa cells at high concentrations: more pronounced HIF-1α upregulation

## C=CC(=O)Nc1cc(N=[N+]=[N-])cc(C(=O)NCC(=O)O)c1O [compound 7]
KDM4A
  IC50: 18.2 µM
KDM4D
  IC50: 10.3 µM
KDM5B
  IC50: 13.6 µM
KDM6B
  IC50: 8.4 µM
